test system: Long-Evans rats or squirrel-monkeys; assay: Conditioned lever-press avoidance of electric footshock (antipsychotic activity); type: in vivo; conditions: avoidance test for antipsychotic activity; Long-Evans rats or squirrel-monkeys (species per value not stated)
Experimental: Representative compounds of the invention (identified in the examples) were also tested for antipsychotic activity according to the following protocol. The noted compounds had the indicated ED50 values (mg/kg) and are considered active as antipsychotic agents in the test procedure.
Mature male Long-Evans rats or squirrel-monkeys are conditioned to push a lever in order to avoid a painful electric footshock. If the animal fails to push the. lever, he receives a shock every 10 seconds until the lever is pushed. Shocks can be terminated by pushing the lever. Thereafter, as long as the lever is pushed at least once every 20 seconds, there will be no shock.
Each animal acts as its own control; one weekly session is used to establish baseline behavior and another session later in the week is used as a drug session. Once patterns of avoidance are established, the effects of standard and unknown compounds are studied.
All events are electronically programmed and the response to these events counted or used as feed-back to the program.

SMILES | ED50 [mg/kg]
CC1=C(NCCN(C)CC(=O)Nc2c(C(=O)c3ccccc3F)c(C)nn2C)CCC1=O [Compound 38, N-[4-(2-Fluorobenzoyl}-1,3-dimethyl-1H-pyrazol-5-yl]-2-[mothyl[2-[(2-methyl-3-oxo-1-cyclopenten-1-yl}amino]ethyl]amino]acetamide] | 21.7
Cc1nn(C)c(NC(=O)CNCC2(C)OCCO2)c1C(=O)c1ccccc1F [Compound 8, N-[4-(2-Fluorobenzoyl)-1,3-dimethyl-1H-pyrazol-5-yl]-3-[[(2-methyl-1,3-dioxolan-2-yl)methyl]amino]acetamide] | 36.4
CCN(CC)CC(=O)Nc1c(C(=O)c2ccccc2F)c(C)nn1C [Compound 6, 2-(Diethylamino)-N-[4-(2-fluorobenzoyl)-1,3-dimethyl-1H-pyrazol-5-yl]acetamide] | 25.6
Cc1nn(C)c(NC(=O)CSCCCN2CCCCC2C)c1C(=O)c1ccccc1F (stereo not drawn) [Compound 43, N-[4-(2-Fluorobenzoyl)-1,3-dimethyl-1H-pyrazol-5-yl]-2-[[3-(2-methyl-1-piperidinyl)propyl]thio]acetamide] | 26.5
Cc1nn(C)c(NC(=O)CN2CCCC2)c1C(=O)c1ccccc1F [Compound 1, N-[4-(2-Fluorobenzoyl)-1,3-dimethyl-1H-pyrazol-5-yl]-1-pyrrolidineacetamide] | 48.2
Cc1nn(C)c(NC(=O)CN2CC3CCC(CC3)C2)c1C(=O)c1ccccc1F [Compound 9, N-[4-(2-Fluorobenzoyl)-1,3-dinethyl-1H-pyrazol-5-yl]-3-azabicyclo-[3,2,2]nonane-3-acetamide] | 36.3
Cc1nn(C)c(NC(=O)CNCCCN2CCCCC2C)c1C(=O)c1ccccc1F (stereo not drawn) [Compound 20, N-[4-(2-Fluorobenzoyl)-1,3-dimethyl-1H-pyrazol-5-yl]-2-[[3-(2-methyl-1-piperidinyl)propyl]amino]acetamide] | 21.4
Cc1nn(C)c(NC(=O)CNCCCN2CCOCC2)c1C(=O)c1ccccc1F [Compound 35] | 51.6
Cc1nn(C)c(NC(=O)CN2CCCCC2)c1C(=O)c1ccccc1F [Compound 5, N-[4-(2-Fluorobenzoyl)-1,3-dimethyl-1H-pyrazol-5-yl]-1-piperidine-acetamide] | 48

Reference: patent EP0068806A2, “Basic acyl amides of (5-amino-1,3-dialkylpyrazol-4-yl)(aryl)methanones, processes for their production, and pharmaceutical compositions containing such compounds” (WARNER-LAMBERT COMPANY, priority 1981, dated 1983)
